According to the NIST ThermoML archive (doi:10.1021/je5000132):

Assay: xn = mol fraction of the nth substance listed
Settings: Liquid; for mass density / viscosity: 101 kPa; for mass density: Vibrating tube method; for speed of sound: 100 kPa, Pulse-echo method; for viscosity: Concentric cylinders viscometry

CC(CC(C)(C)C)CC(C)(C)CC(C)(C)C (stereo not drawn) [2,2,4,4,6,8,8-heptamethylnonane] + CCCCCCCCCCCC
Settings	mass density [kg/m3]	speed of sound [m/s]	viscosity [mPa·s]
323.15 K, x1 = 0.103	731.669	–	–
323.15 K, x1 = 0.1677	734.749	–	–
323.15 K, x1 = 0.2944	739.926	–	–
323.15 K, x1 = 0.4191	744.546	–	–
323.15 K, x1 = 0.5011	747.812	–	–
323.15 K, x1 = 0.5955	751.18	–	–
323.15 K, x1 = 0.7585	756.708	–	–
323.15 K, x1 = 0.8985	761.266	–	–
323.15 K, x1 = 1	764.316	–	–
333.15 K, x1 = 0.103	724.407	1146.3	0.84
333.15 K, x1 = 0.1677	727.54	1145.4	0.877
333.15 K, x1 = 0.2944	732.805	1144.2	0.95
333.15 K, x1 = 0.4191	737.503	1143.3	1.03
333.15 K, x1 = 0.5011	740.821	1142.7	1.09
333.15 K, x1 = 0.5955	744.244	1142.2	1.17
333.15 K, x1 = 0.7585	749.858	1141.4	1.33
333.15 K, x1 = 0.8985	754.484	1141	1.49
333.15 K, x1 = 1	757.571	1140.8	1.63
343.15 K, x1 = 0.103	717.1	–	0.738
343.15 K, x1 = 0.1677	720.2	–	0.769
343.15 K, x1 = 0.2944	725.6	–	0.83
343.15 K, x1 = 0.4191	730.4	–	0.895
343.15 K, x1 = 0.5011	733.7	–	0.949
343.15 K, x1 = 0.5955	737.2	–	1.01
343.15 K, x1 = 0.7585	743	–	1.14
343.15 K, x1 = 0.8985	747.6	–	1.27
343.15 K, x1 = 1	750.7	–	1.39
353.15 K, x1 = 0.103	709.6	–	0.654
353.15 K, x1 = 0.1677	712.7	–	0.681
353.15 K, x1 = 0.2944	718.2	–	0.732
353.15 K, x1 = 0.4191	723.1	–	0.787
353.15 K, x1 = 0.5011	726.5	–	0.832
353.15 K, x1 = 0.5955	730.1	–	0.885
353.15 K, x1 = 0.7585	736	–	0.994
353.15 K, x1 = 0.8985	740.7	–	1.1
353.15 K, x1 = 1	743.8	–	1.19
363.15 K, x1 = 0.103	702	–	0.585
363.15 K, x1 = 0.1677	705.3	–	0.608
363.15 K, x1 = 0.2944	710.8	–	0.652
363.15 K, x1 = 0.4191	715.8	–	0.698
363.15 K, x1 = 0.5011	719.2	–	0.737
363.15 K, x1 = 0.5955	722.9	–	0.782
363.15 K, x1 = 0.7585	728.9	–	0.873
363.15 K, x1 = 0.8985	733.6	–	0.963
363.15 K, x1 = 1	736.8	–	1.04
373.15 K, x1 = 0.103	694.5	–	0.528
373.15 K, x1 = 0.1677	697.8	–	0.548
373.15 K, x1 = 0.2944	703.5	–	0.586
373.15 K, x1 = 0.4191	708.5	–	0.626
373.15 K, x1 = 0.5011	712	–	0.659
373.15 K, x1 = 0.5955	715.8	–	0.697
373.15 K, x1 = 0.7585	721.8	–	0.775
373.15 K, x1 = 0.8985	726.6	–	0.85
373.15 K, x1 = 1	729.9	–	0.914
